The numbers were not newly measured in patent publication US20110042247A1 (priority 2009, published 2011), which cites them from elsewhere.

Molecules are shown by their SMILES. Read-outs that look alike come from different tables or passages of the source.

On to `Nc1ncn([C@@H]2O[C@H](CO)[C@@H](O)[C@H]2O)c(=O)n1` [Azacitidine, 4-amino-1-β-D-ribofuranosyl-1,3,5-triazin-2(1H)-one], for which the Solubility entry is given as “sparingly soluble” (5% Tween 80 in water); “sparingly soluble” (5% dextrose in water); “sparingly soluble” (N-methylpyrrolidone); “insoluble” (acetone); “soluble” (dimethylsulphoxide (DMSO)); “insoluble” (ethanol). Further, the Solubility entry was “slightly soluble” (ethanol and water (50:50)); “insoluble” (methyl ethyl ketone); “sparingly soluble” (normal saline); “slightly soluble” (polyethylene glycol); “slightly soluble” (propylene glycol); “sparingly soluble” (water). The Solubility entry (water saturated octanol) is “sparingly soluble”.
As to `Nc1ncn([C@H]2C[C@H](O)[C@@H](CO)O2)c(=O)n1` [Decitabine, 4-amino-1-(2-deoxy-β-D-erythro-pentofuranosyl)-1,3,5-triazin-2(1H)-one], the Solubility result was “soluble” (dimethylsulphoxide (DMSO)); “slightly soluble” (ethanol and water (50:50)); “slightly soluble” (methanol); “slightly soluble” (methanol/water (50/50)); “sparingly soluble” (water).
